Laboratory results reported in patent publication US20260028364A1, “CATIONIC CHROMENONES AND THEIR USE IN ONCOLOGY” (FLORATEK PHARMA S.A., priority 2022, published 2026).

Assays:
MIA-PaCa-2 = assay: CellTiter-Glo cell viability, MIA-PaCa-2; assay type: cell-based; details: Homo sapiens; MIA-PaCa-2 cells, 72 h with compound
Method: (§1) Antitumor activity against a panel of cancer cell lines Antitumor activity of the compounds was assessed by using the CellTiter-Glow® Luminescent Cell Viability assay (Promega #G7572) according to the manufacturer's instructions. The compounds were tested at 5 or 6 concentrations in 1:2 dilution increments (highest concentration 10 µM) in triplicate well conditions.
(§2) Tumor cells were grown at 37° C. in a humidified atmosphere with 5% CO2 in RPMI 1640 or DMEM medium, supplemented with 10% (v/v) fetal calf serum and 50 μg/ml gentamicin for up to 20 passages, and were passaged once or twice weekly. Cells were harvested using TrypLE or PBS buffer containing 1 mM EDTA, and the percentage of viable cells is determined using a cell counter.
(§3) Cells were harvested from exponential phase cultures, counted and plated in 96 well flat-bottom microtiter plates at a cell density depending on the cell line's growth rate (4,000-20,000 cells/well depending on the cell line's growth rate) in RPMI 1640 or DMEM medium supplemented with 10% (v/v) fetal calf serum and 50 μg/ml gentamicin (140 μl/well). Cultures were incubated at 37° C. and 5% CO2 in a humidified atmosphere. After 24 h, 10 μl of test compounds or control medium are added, and left on the cells for another 72 h. Compounds were serially diluted in DMSO, transferred in cell culture medium, and added to the assay plates. The DMSO concentration was kept constant at <0.2% v/v across the assay plate. Viability of cells was quantified by the CellTiter-Glow® Luminescent Cell Viability assay (Promega #G7572). Luminescence was measured with the microplate luminometer (En Vision Perkin Elmer).
(§4) Sigmoidal concentration-response curves were fitted to the data points (test-versus-control, T/C values) obtained for each tumor model using Graph Pad prism 5.02 software. IC50 values are reported as absolute IC50 values, being the concentration of test compound at the intersection of the concentration-response curves with T/C=50%.

[1] = tested on: A2058 melanoma tumor cells; assay: In vivo tumour inhibition, A2058 melanoma xenograft; set-up: species or system Balb-c/nude mouse
Method: The A2058 tumor cells were maintained in vitro in DMEM medium supplemented with 10% fetal bovine serum and 1% Anti-Anti at 37° C. in an atmosphere of 5% CO2 in air. The tumor cells were routinely subcultured twice weekly.
Each Balb-c/nude mouse was inoculated subcutaneously at the right flank with A2058 melanoma tumor cells (5×10^6+Matrigel) in 0.2 ml of PBS for tumor development. 10 animals per group were randomized when the average tumor volume reached 74 mm^3. Test compounds were prepared as DMSO stocks and diluted in the injection vehicle before administration. The treatment was administered every other day (QOD) as a peritumoral injection. Vehicle composition was 4% DMSO, 5% ethanol, 20% PEG200, 71% saline. Dosing volume for all groups: 5 mL/kg.
Tumor volume was measured twice weekly in two dimensions using a caliper, and the volume was expressed in mm^3 using the formula: V=0.5a×b^2 where a and b are the long and short diameters of the tumor, respectively. The tumor size was then used for calculations of T/C value: The T/C value (in percent) is an indication of antitumor effectiveness; T and Care the mean volumes of the treated and control groups, respectively, on a given day.
One-way ANOVA was performed to compare tumor volume among treated groups and vehicle group, all data were analyzed using GraphPad Prism 5.0. p<0.05 was considered to be statistically significant.

SK-Mel-5 = assay: CellTiter-Glo cell viability, SK-Mel-5; assay type: cell-based; details: Homo sapiens; SK-Mel-5 cells, 72 h with compound
Method: as §1, §2, §3, §4

MAPK/MEK/B-raf = assay: SelectScreen CellSensor pathway inhibition, MAPK/MEK/B-raf; assay type: cell-based; details: Homo sapiens, A-375; AP1-bla A375, no stimulus (constitutively activated)
Method: Inhibition of various cellular pathways known to be involved in malignancy was tested using the SelectScreen Cell-based Pathway Profiling GeneBLAzer™ cell signaling pathway specific CellSensor™ cell lines ((Thermo Fisher). The assay is based on a beta-lactamase reporter activity which is modulated and can be measured quantitatively and selectively with the LiveBLAzer™-FRET B/G Loading Substrate. SelectScreen Cell-Based Pathway Profiling Service uses XLfit from IDBS. The dose response curve is curve fit to model number 205 (sigmoidal dose-response model). Custom logic was built by Thermo Fisher for the data analysis tool to address the different compound characteristics that can be observed with functional assays.
MAPK/MEK/B-raf—AP1-bla A375—Inhibitor Screen, Constitutively Activated
AP1-bla A375 cells are thawed and resuspended in Assay Media (OPTI-MEM, 0.5% dialyzed FBS, 0.1 mM NEAA, 1 mM Sodium Pyruvate, 100 U/mL/[…] Pen/Strep) to a concentration of 312,500 cells/mL. 4 μL of a 10×serial dilution of Rafi Kinase Inhibitor (control inhibitor starting concentration, 10,000 nM) or compounds are added to appropriate wells of a TC-Treated assay plate. 32 μL of cell suspension (10,000 cells) is added to the wells. 4 μL of Assay Media is added to all wells to bring the final assay volume to 40 μL. […] The plate is read on a fluorescence plate reader.

MDA-MB-468 = assay: Caspase-Glo 3/7 apoptosis assay, MDA-MB-468; assay type: cell-based; details: MDA-MB-468 cells, 10 μM, 24 h
Method: Apoptosis activity was evaluated using Caspase-Glo 3/7 Assay kit (Promega-G8091) according to the manufacturer's instructions. Cells were grown as above and harvested from exponential phase cultures, counted and plated in 96 black well flat-bottom microtiter plates at a cell density depending on the cell line's growth rate (3,000-10,000 cells/well depending on the cell line's growth rate). Following an overnight incubation, compounds were added to the cell plates at various concentrations (highest at […]) with the DMSO concentration maintained at 0.1% for a 24 h period treatment. 100 μL of Caspase-Glo 3/7 Reagent was added to each well of 96-well plate containing 100 μL culture medium, and after 30 min at room temperature, luminescence was measured with the microplate luminometer (EnVision Perkin Elmer). The induced relative Caspase 3/7 activity of the tested compounds was determined by the following formula: Relative Caspase 3/7 activity (fold increase)=(RLU compound−RLU blank)/(RLU control−RLU blank).

[2] = 16 mg/kg peritumoral QOD, 6 injections, day 20 after treatment start

IC50 (MIA-PaCa-2): 22 nM | IC50 (SK-Mel-5): 470 nM | IC50 (MAPK/MEK/B-raf): 2700 nM
SMILES: COc1ccc2c(=O)c(-c3ccc(CCCC[P+](c4ccccc4)(c4ccccc4)c4ccccc4)cc3)coc2c1OC.[Br-] [SND470, (4-(4-(7,8-Dimethoxy-4-oxo-4H-chromen-3-yl)phenyl)butyl)triphenylphosphonium bromide]
T/C [1, 2]: 39.2% | TGI [1, 2]: 62.8% | Tumor Volume ([1]; 16 mg/kg peritumoral QOD, 6 injections, day 20 after treatment start, mean ± SEM): 886 ± 127 mm^3 | activity in inhibiting A2058 melanoma cell line in vivo ([1]; nude mouse xenograft model of melanoma): significant activity | Fold activation of Caspase 3/7 (MDA-MB-468): 3.15 Fold
